Laboratory results from patent publication US20250090699A1, “FAP TARGETING CYCLIC PEPTIDES AND CONJUGATES THEREOF” (Novartis AG, priority 2023, published 2025).
Structures can show the parent of a compound that is named as a salt. Starred links: 1 amine or outer side, 2 acyl side, 3 side chain; linkers in the order of their positions; H or OH if unused. Non-standard residues stand in square brackets, D forms with d. Residues, ends and D or L forms follow the SMILES beside them. Groups on a side chain read outwards from the residue. *: point of attachment. F(4amPEG2NHDOTA-Lu) = lutetium complex of (S)-2,2',2''-(10-(1-(4-(2-amino-2-carboxyethyl)phenyl)-3,12-dioxo-5,8-dioxa-2,11-diazatridecan-13-yl)-1,4,7,10-tetraazacyclododecane-1,4,7-triyl)triacetic acid (Phe with 4-aminomethyl-PEG2-DOTA-Lu), O=C([O-])CN1CCN(CC(=O)[O-])CCN(CC(=O)NCCOCCOCC(=O)NCc2ccc(C[C@H](N[*:1])C(=O)[*:2])cc2)CCN(CC(=O)[O-])CC1.[Lu+3]; COpipzaa = 4-(carboxymethyl)piperazine-1-carbonyl, O=C(O)CN1CCN(C(=O)*)CC1; hS(Pr) = O-propyl-L-homoserine, CCCOCC[C@H](N[*:1])C(=O)[*:2]; Phe(4-CH2NH2) = NCc1ccc(C[C@H](N)C(=O)O)cc1; Piperazinyl(4-CH2COOH) = O=C(O)CN1CCN(*)CC1; NMeF = CN[C@@H](Cc1ccccc1)C(=O)O; Aoc(2) = CCCCCC[C@H](N)C(=O)O; Ahp(2) = CCCCC[C@H](N)C(=O)O; NMeK = CN[C@@H](CCCCN)C(=O)O; hSer = N[C@@H](CCO)C(=O)O; AEEA = NCCOCCOCC(=O)O; CO = O=C([*:1])[*:2]; Propyl = CCC*

Assays:
human FAP [1] = molecular target: T1, human FAP (Homo sapiens, UniProt Q12884); test: Surface plasmon resonance (SPR) for peptide affinity, human FAP; format: binding; conditions: read-out: h. FAP, SPR, KD
T1 construct: the biotinylated His, Avi tag, human FAP (26-760, FAP-H82Q6); His; Avi tag (biotinylated); purchased AcroBiosystems FAP-H82Q6
T1 sequence (Q12884 26-760): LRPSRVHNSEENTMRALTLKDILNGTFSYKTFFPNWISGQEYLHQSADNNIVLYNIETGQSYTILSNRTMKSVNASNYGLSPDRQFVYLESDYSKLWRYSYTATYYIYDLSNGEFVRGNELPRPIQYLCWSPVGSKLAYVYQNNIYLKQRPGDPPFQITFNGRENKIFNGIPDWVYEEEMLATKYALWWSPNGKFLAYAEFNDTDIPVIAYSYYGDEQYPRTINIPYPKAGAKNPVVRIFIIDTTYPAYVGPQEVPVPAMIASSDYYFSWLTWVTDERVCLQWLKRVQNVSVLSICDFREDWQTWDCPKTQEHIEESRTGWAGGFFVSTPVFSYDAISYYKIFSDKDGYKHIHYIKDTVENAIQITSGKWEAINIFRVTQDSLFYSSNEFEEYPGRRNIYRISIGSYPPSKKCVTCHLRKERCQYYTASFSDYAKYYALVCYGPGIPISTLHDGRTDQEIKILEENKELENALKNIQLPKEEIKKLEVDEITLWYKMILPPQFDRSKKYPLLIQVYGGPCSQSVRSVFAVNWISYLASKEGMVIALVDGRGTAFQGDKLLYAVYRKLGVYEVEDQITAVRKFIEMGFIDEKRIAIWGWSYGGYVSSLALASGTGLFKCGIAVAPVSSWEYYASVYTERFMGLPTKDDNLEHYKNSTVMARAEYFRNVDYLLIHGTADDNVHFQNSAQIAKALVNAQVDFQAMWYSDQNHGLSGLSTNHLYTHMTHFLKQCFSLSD
Description: Peptide affinities (KD) were determined by SPR using a Biacore™ 8K device (Cytiva) towards the following proteins: biotinylated His, Avi tag, human FAP (26-760, FAP-H82Q6), biotinylated His, Avi tag, mouse FAP (26-761, FAP-M82Q5), His tag, human DPP4 (34-766, DP4-H82E3), all purchased from AcroBiosystems and His tag, mouse DPP4 (29-760, 954-SE) from R&D Systems. The FAP proteins and their homologous were diluted to a concentration of 2 μg/mL into acetate buffer pH 5.5, then immobilized onto a CM5 sensorchip (Cytiva, BR-1005-30) to reach a response around 2000 R U. The running buffer HBS-EP+pH 7.6 (20× from Teknova CAT. No: H8022) contained 10 mM HEPES pH 7.6, 150 mM NaCl, 3 mM EDTA, 0.05% Tween20 and 2% DMSO. Experiments were carried out at 25° C. using a flow rate of 30 μL/min. Compounds were tested in single cycle kinetic mode at 8 different concentrations. Curve fitting was performed using the Biacore™ 8K evaluation software. The sensorgrams were fitted by applying a 1:1 binding model to calculate kinetic rate constants and equilibrium dissociation constants (KD).
For this assay, the setup had the same conditions (flow rate, running buffer, peptide dilution) as described above for the CM5 method. The oligo CAP reagent obtained in the CAPture Kit (Ref. 28920234) was 1/5 diluted into running buffer and used with a contact time of 300 s at a flow rate of 2 μL/min. The human and mouse FAP constructs described above were used (from AcroBiosystems or produced in house). The FAP proteins were diluted to a concentration of 2 μg/mL into acetate pH 5.5, 0.05% Tween20 and used with a contact time of 600 s at a flow rate of 10 μL/min. The peptides were tested with an association time of 280 s followed by a dissociation time of 3000 s at a flow rate of 30 μL/min. The regeneration was done using the regeneration solution (8 M guanidine-HCl, 1 M NaOH) as obtained with a contact time of 270 s at a flow rate of 10 μL/min. […] The compounds marked with an asterisk were tested against human and mouse DDP4.

mouse FAP [2] = molecular target: T2, mouse FAP (Mus musculus, UniProt P97321); test: Surface plasmon resonance (SPR) for peptide affinity, mouse FAP; format: binding
T2 construct: biotinylated His, Avi tag, mouse FAP (26-761, FAP-M82Q5); His; Avi tag (biotinylated); purchased AcroBiosystems FAP-M82Q5
T2 sequence (P97321 26-761): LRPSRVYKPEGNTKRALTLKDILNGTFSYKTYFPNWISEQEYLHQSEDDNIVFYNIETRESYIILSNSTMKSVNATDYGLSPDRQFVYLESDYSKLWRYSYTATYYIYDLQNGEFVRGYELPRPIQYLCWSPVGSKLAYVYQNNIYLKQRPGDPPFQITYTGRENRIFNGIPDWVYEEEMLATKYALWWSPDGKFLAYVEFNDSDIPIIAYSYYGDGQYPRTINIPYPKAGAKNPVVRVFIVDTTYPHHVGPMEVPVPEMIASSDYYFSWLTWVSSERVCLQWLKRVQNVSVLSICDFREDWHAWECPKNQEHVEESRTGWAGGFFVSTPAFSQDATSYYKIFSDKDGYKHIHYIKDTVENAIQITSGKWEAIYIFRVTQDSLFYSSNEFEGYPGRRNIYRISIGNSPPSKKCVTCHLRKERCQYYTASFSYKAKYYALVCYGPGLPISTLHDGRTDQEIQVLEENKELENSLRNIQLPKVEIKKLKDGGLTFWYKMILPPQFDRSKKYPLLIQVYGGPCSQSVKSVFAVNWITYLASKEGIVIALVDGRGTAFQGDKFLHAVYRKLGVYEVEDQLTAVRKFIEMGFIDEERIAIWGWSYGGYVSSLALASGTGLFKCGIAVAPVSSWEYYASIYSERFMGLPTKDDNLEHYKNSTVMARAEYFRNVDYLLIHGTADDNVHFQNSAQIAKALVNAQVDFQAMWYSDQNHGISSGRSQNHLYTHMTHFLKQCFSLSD
Procedure, shortened: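 Biotinylated His/Avi-tagged FAP ectodomains (human 26-760, mouse 26-761) captured or immobilized on Biacore sensor chips; peptides run at 25 °C in HBS-EP+ pH 7.6 with 2% DMSO, single-cycle kinetics, 8 concentrations. KD from 1:1 binding-model fit of sensorgrams.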

mouse FAP [3] = molecular target: T2, mouse FAP; test: Enzymatic FAP competition assay (Z-Gly-Pro-AMC fluorescence), mouse FAP; format: biochemical; conditions: read-out: m. FAP, Enz., IC50
Procedure, shortened: (§1)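 Biotinylated His/Avi-tagged FAP ectodomain (human 26-760, mouse 26-761) at 0.01 nM, preincubated 24 h with peptides (14 concentrations, up to 1 μM) in pH 7.5 phosphate, 150 mM NaCl, 0.05% Tween20, 1% DMSO. Then 50 μM Z-Gly-Pro-AMC, 4 h at 22-24° C; AMC fluorescence (380/460 nm) gave IC50 from duplicate points.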

human FAP [4] = molecular target: T1, human FAP; test: Enzymatic FAP competition assay (Z-Gly-Pro-AMC fluorescence), human FAP; format: biochemical; conditions: read-out: h. FAP, Enz., IC50
Procedure, shortened: as §1

Row | Compound | Kd (human FAP [1]) [nM] | Kd (mouse FAP [2]) [nM] | IC50 (mouse FAP [3]) [nM] | IC50 (human FAP [4]) [nM]
1 | CCCCC[C@@H]1NC(=O)[C@H](Cc2ccc(O)cc2)NC(=O)[C@H](Cc2ccccc2)N(C)C(=O)CNC(=O)CNC(=O)[C@H]2CCCN2C(=O)[C@H](CC(=O)O)NC(=O)[C@H](Cc2ccc(O)cc2)NC(=O)CNC(=O)[C@H](Cc2c[nH]c3ccccc23)NC1=O [Example A52, Gly-Gly-NMePhe-Tyr-Ahp-Trp-Gly-Tyr-Asp-D-Pro] (cyclo([Ahp(2)]WGYD[dP]GG[NMeF]Y)) | 0.118 | 0.36 | 0.737 | 0.104
2 | Gly-Gly-NMePhe-F(4amPEG2NHDOTA-Lu)-hS(Pr)-Trp-Gly-K(COpipzaa)-Asp-D-Pro (cyclo(GG[NMeF][F(4amPEG2NHDOTA-Lu)][hS(Pr)]WGK(COpipzaa)D[dP]); also: Lu complex) [Example C2] | < 0.008 | < 0.036 | 0.023 | 0.009
3 | CCCCCC[C@@H]1NC(=O)[C@H](Cc2ccc(CNC(=O)COCCOCCN)cc2)NC(=O)[C@H](Cc2ccccc2)N(C)C(=O)CNC(=O)CNC(=O)[C@H]2CCCN2C(=O)[C@H](CC(=O)O)NC(=O)[C@H](CCCCNC(=O)N2CCN(CC(=O)O)CC2)NC(=O)CNC(=O)[C@H](Cc2c[nH]c3ccccc23)NC1=O [Example A1, 2-((9S,12S,15S,18S,24S,27S,32aR)-18-((1H-indol-3-yl)methyl)-12-(4-((2-(2-(2-aminoethoxy)ethoxy)acetamido)methyl)benzyl)-9-benzyl-24-(4-(4-(carboxymethyl)piperazine-1-carboxamido)butyl)-15-hexyl-8-methyl-1,4,7,10,13,16,19,22,25,28-decaoxodotriacontahydropyrrolo[1,2-a][1,4,7,10,13,16,19,22,25,28]decaazacyclotriacontin-27-yl)acetic acid TFA salt] (cyclo([Aoc(2)]WGK([CO-Piperazinyl(4-CH2COOH)])D[dP]GG[NMeF][Phe(4-CH2NH2)](AEEA))) | < 0.007 | < 0.018 | 0.028 | 0.009
4 | CCCCC[C@@H]1NC(=O)[C@H](Cc2ccc(O)cc2)NC(=O)[C@H](Cc2ccccc2)N(C)C(=O)CNC(=O)CNC(=O)[C@H]2CCCN2C(=O)[C@H](CC(=O)O)NC(=O)[C@H](Cc2ccc(OC)cc2)NC(=O)CNC(=O)[C@H](Cc2c[nH]c3ccccc23)NC1=O [Example A13, Gly-Gly-NMePhe-Tyr-Ahp-Trp-Gly-F(4OMe)-Asp-D-Pro] (cyclo([Ahp(2)]WGY(Me)D[dP]GG[NMeF]Y)) | < 0.005 | 0.011 | 0.011 | 0.005
5 | CCCOCC[C@@H]1NC(=O)[C@H](Cc2ccc(CNC(=O)COCCOCCN)cc2)NC(=O)[C@H](Cc2ccccc2)N(C)C(=O)CNC(=O)CNC(=O)[C@H]2CCCN2C(=O)[C@H](CC(=O)O)NC(=O)[C@H](CCCCNC(=O)N2CCN(CC(=O)O)CC2)NC(=O)CNC(=O)[C@H](Cc2c[nH]c3ccccc23)NC1=O [Example A2, 2-((9S,12S,15S,18S,24S,27S,32aR)-18-((1H-indol-3-yl)methyl)-12-(4-((2-(2-(2-aminoethoxy)ethoxy)acetamido)methyl)benzyl)-9-benzyl-24-(4-(4-(carboxymethyl)piperazine-1-carboxamido)butyl)-8-methyl-1,4,7,10,13,16,19,22,25,28-decaoxo-15-(2-propoxyethyl)dotriacontahydropyrrolo[1,2-a][1,4,7,10,13,16,19,22,25,28]decaazacyclotriacontin-27-yl)acetic acid TFA salt] (cyclo(D[dP]GG[NMeF][Phe(4-CH2NH2)](AEEA)[hSer](Propyl)WGK([CO-Piperazinyl(4-CH2COOH)]))) | < 0.011 | < 0.023 | 0.047 | 0.012
6 | CCCCC[C@@H]1NC(=O)[C@H](Cc2ccc(O)cc2)NC(=O)[C@H](Cc2ccccc2)N(C)C(=O)CNC(=O)CNC(=O)[C@H]2CCCN2C(=O)[C@H](CC(=O)O)NC(=O)[C@H](CCCCNC(=O)N2CCN(CC(=O)O)CC2)N(C)C(=O)CNC(=O)[C@H](Cc2c[nH]c3ccccc23)NC1=O [Example A3, 2-((9S,12S,15S,18S,24S,27S,32aR)-18-((1H-indol-3-yl)methyl)-9-benzyl-24-(4-(4-(carboxymethyl)piperazine-1-carboxamido)butyl)-12-(4-hydroxybenzyl)-8,23-dimethyl-1,4,7,10,13,16,19,22,25,28-decaoxo-15-pentyldotriacontahydropyrrolo[1,2-a][1,4,7,10,13,16,19,22,25,28]decaazacyclotriacontin-27-yl)acetic acid TFA salt] (cyclo([Ahp(2)]WG[NMeK]([CO-Piperazinyl(4-CH2COOH)])D[dP]GG[NMeF]Y)) | – | 1.9 | 0.95 | 0.76
7 | CCCCC[C@@H]1NC(=O)[C@H](Cc2ccc(O)cc2)NC(=O)[C@H](Cc2ccccc2)N(C)C(=O)CNC(=O)CNC(=O)[C@H]2CCCN2C(=O)[C@H](CC(=O)O)NC(=O)[C@H](Cc2ccc(O)cc2)NC(=O)[C@@H](C)NC(=O)[C@H](Cc2c[nH]c3ccccc23)NC1=O [Example A64, Gly-Gly-NMePhe-Tyr-Ahp-Trp-D-Ala-Tyr-Asp-D-Pro] (cyclo([Ahp(2)]W[dA]YD[dP]GG[NMeF]Y)) | – | 3.6 | 4.1 | 2.4
